Test results published in the kinase profiling compilation of Christmann-Franck et al. (2016).

Columns and labels:
Assay in all cases: radiometric filter-binding kinase assay, Kinase HotSpot
Conditions in all cases: compound 0.5 µM; ATP 10 µM
[1] = target: STK10 (human) (UniProt O94804)
[2] = target: RAF1 (human) (UniProt P04049)
[3] = target: MAP3K2 (human) (UniProt Q9Y2U5)
[4] = target: STK16 (human) (UniProt O75716)
[5] = target: WEE1 (human) (UniProt P30291)
[6] = target: SRMS (human) (UniProt Q9H3Y6)
[7] = target: PAK7 (human) (UniProt Q9P286)
[8] = target: CAMK2B (human) (UniProt Q13554)
[9] = target: AURKB (human) (UniProt Q96GD4)
[10] = target: PDGFRA (human) (UniProt P16234)
[11] = target: MAP3K11 (human) (UniProt Q16584)
[12] = target: STK4 (human) (UniProt Q13043)
[13] = target: MAPK10 (human) (UniProt P53779)
[14] = target: DYRK1B (human) (UniProt Q9Y463)
[15] = target: MAP3K3 (human) (UniProt Q99759)
[16] = target: EPHA2 (human) (UniProt P29317)
[17] = target: CAMK1G (human) (UniProt Q96NX5)
[18] = target: PRKCB1 (human) (UniProt P05771)
[19] = target: CSNK2A1 (human) (UniProt P68400)
[20] = target: CDK9 CCNK (human) (UniProt O75909+P50750)
[21] = target: SYK (human) (UniProt P43405)
[22] = target: ERBB4 (human) (UniProt Q15303)
[23] = target: ZAP70 (human) (UniProt P43403)
[24] = target: CDK1 CCNB1 (human) (UniProt P06493+P14635)
[25] = target: TEK (human) (UniProt Q02763)
[26] = target: CSK (human) (UniProt P41240)
[27] = target: ROS1 (human) (UniProt P08922)
[28] = target: PRKCZ (human) (UniProt Q05513)
[29] = target: PDPK1 (human) (UniProt O15530)
[30] = target: CAMK1 (human) (UniProt Q14012)
[31] = target: MAP3K9 (human) (UniProt P80192)
[32] = target: AURKC (human) (UniProt Q9UQB9)
[33] = target: CAMK2D (human) (UniProt Q13557)
[34] = target: BRSK2 (human) (UniProt Q8IWQ3)
[35] = target: PRKD3 (human) (UniProt O94806)
[36] = target: IKBKE (human) (UniProt Q14164)
[37] = target: CDK6 CCND1 (human) (UniProt Q00534+P24385)
[38] = target: MAP3K14 (human) (UniProt Q99558)
[39] = target: MAP3K7 TAB1 (human) (UniProt O43318+Q15750)
[40] = target: PRKG2 (human) (UniProt Q13237)
[41] = target: AKT2 (human) (UniProt P31751)

Sequence of BRSK2 (human) (Q8IWQ3 whole entry, looked up): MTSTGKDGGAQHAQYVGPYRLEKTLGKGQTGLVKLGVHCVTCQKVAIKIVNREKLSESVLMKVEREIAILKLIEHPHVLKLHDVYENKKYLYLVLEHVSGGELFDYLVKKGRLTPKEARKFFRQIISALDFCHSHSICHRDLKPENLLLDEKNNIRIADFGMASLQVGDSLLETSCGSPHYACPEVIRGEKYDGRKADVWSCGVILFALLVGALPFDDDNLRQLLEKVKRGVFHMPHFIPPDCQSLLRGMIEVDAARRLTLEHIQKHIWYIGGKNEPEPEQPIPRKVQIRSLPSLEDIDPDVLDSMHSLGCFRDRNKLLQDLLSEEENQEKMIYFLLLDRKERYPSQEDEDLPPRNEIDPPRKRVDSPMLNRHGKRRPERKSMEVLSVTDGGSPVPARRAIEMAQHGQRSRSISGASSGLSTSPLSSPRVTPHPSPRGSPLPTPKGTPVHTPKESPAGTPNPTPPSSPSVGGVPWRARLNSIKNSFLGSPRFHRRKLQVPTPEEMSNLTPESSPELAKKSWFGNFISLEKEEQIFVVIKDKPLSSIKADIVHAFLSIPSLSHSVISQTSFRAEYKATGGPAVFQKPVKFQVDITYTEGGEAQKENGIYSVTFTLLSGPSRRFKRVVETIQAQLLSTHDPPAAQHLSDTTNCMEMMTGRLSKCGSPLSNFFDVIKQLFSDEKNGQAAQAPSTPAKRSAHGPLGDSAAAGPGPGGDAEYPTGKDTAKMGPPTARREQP
Sequence of PDGFRA (human) (P16234 whole entry, looked up): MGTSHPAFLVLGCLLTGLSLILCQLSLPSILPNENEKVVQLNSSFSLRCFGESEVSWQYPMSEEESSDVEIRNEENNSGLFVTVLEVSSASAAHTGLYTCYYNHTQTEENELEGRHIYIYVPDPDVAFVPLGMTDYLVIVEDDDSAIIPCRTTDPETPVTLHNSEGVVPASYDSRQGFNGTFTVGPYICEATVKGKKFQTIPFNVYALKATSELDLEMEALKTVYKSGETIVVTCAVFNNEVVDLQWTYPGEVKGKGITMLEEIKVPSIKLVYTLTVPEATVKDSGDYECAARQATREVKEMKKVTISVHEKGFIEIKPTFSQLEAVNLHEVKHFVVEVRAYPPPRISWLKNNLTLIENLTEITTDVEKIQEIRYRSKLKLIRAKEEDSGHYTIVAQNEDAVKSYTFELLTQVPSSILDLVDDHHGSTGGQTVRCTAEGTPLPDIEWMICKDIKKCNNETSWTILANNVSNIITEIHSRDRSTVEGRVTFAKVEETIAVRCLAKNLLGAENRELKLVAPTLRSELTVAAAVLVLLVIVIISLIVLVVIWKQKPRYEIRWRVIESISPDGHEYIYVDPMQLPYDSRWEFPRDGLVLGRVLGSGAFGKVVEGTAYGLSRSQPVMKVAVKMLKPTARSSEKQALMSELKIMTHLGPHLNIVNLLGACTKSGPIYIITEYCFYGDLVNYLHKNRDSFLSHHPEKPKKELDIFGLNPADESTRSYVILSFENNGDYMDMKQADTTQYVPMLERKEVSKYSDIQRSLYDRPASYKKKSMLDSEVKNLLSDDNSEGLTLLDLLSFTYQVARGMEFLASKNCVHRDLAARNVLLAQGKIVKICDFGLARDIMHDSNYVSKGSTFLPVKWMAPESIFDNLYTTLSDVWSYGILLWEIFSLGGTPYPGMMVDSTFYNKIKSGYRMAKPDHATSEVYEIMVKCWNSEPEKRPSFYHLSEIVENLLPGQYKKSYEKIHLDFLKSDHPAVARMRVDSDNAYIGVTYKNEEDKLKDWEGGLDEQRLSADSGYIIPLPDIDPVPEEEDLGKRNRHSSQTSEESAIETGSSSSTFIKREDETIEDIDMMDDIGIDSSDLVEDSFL
Sequence of WEE1 (human) (P30291 whole entry, looked up): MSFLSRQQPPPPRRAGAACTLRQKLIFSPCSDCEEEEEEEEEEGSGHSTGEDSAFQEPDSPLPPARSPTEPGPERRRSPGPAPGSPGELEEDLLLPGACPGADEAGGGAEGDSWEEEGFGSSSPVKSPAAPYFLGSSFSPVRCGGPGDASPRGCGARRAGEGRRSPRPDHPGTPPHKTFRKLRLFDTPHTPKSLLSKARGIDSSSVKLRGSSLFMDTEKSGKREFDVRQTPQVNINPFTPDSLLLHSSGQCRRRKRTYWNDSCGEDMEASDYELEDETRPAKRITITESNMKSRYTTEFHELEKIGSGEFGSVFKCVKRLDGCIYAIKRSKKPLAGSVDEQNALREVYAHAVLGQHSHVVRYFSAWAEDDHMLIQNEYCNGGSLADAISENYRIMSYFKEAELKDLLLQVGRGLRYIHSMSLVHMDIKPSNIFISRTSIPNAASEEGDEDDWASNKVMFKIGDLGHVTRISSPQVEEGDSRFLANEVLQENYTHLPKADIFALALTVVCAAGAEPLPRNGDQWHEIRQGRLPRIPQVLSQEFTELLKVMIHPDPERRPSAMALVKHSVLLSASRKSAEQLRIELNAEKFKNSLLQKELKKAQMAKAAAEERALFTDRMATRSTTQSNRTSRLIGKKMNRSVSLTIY
Sequence of MAP3K7 TAB1 (human) (O43318 whole entry, looked up): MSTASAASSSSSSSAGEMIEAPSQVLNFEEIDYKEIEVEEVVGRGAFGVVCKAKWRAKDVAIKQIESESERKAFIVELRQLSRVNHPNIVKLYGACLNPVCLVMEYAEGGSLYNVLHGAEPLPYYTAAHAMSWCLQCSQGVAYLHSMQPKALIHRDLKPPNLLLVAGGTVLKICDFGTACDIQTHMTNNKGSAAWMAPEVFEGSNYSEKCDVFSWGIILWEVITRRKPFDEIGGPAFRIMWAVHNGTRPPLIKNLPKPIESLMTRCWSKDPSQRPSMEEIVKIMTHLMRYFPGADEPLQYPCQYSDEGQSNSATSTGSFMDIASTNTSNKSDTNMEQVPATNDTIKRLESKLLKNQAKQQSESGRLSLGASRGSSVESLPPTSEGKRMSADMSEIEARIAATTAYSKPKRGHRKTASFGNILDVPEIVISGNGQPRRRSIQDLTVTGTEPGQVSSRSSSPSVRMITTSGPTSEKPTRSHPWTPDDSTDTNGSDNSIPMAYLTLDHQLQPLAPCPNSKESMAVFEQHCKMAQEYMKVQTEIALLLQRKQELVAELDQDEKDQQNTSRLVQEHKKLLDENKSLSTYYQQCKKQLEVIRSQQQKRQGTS
Sequence of MAP3K7 TAB1 (human) (Q15750 whole entry, looked up): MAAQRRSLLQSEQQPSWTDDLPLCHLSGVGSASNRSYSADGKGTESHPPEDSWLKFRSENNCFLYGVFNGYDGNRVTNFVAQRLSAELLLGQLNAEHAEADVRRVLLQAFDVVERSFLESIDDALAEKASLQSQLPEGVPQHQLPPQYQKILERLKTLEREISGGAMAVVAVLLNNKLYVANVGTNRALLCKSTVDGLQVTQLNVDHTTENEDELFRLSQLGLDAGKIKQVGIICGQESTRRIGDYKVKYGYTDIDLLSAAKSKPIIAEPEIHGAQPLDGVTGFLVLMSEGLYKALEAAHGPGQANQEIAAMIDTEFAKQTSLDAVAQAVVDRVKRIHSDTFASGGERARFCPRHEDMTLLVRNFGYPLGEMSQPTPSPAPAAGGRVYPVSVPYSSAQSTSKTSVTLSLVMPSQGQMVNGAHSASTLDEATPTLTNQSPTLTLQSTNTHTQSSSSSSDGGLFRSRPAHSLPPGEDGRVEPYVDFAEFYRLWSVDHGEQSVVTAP
Sequence of MAP3K9 (human) (P80192 whole entry, looked up): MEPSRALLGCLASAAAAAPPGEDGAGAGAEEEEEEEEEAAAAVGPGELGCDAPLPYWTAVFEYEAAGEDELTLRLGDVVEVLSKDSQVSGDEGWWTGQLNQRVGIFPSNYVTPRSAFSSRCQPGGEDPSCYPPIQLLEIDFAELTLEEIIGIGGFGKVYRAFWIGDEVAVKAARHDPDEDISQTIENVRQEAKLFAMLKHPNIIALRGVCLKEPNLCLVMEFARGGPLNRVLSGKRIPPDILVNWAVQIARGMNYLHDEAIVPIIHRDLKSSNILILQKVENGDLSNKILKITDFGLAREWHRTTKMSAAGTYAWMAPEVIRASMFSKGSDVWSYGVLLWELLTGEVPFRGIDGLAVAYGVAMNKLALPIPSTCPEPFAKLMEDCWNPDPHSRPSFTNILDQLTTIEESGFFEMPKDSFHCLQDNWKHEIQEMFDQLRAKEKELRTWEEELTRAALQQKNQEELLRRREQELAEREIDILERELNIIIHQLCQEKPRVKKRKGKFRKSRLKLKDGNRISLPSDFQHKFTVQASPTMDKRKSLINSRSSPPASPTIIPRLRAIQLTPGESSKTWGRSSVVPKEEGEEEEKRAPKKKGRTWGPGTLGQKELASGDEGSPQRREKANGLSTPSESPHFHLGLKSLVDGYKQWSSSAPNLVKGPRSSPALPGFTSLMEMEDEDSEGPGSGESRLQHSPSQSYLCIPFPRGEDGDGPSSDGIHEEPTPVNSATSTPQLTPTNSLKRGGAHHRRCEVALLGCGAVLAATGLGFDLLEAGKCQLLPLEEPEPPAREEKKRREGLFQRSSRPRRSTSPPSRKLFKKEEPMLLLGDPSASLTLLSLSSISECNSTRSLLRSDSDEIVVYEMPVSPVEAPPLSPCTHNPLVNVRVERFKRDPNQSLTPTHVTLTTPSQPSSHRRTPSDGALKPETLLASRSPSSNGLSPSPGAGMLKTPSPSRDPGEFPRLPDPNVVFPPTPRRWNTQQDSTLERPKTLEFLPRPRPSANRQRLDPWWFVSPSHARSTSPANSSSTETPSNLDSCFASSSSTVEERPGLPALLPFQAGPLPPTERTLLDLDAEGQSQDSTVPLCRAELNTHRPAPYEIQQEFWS
Sequence of STK16 (human) (O75716 whole entry, looked up): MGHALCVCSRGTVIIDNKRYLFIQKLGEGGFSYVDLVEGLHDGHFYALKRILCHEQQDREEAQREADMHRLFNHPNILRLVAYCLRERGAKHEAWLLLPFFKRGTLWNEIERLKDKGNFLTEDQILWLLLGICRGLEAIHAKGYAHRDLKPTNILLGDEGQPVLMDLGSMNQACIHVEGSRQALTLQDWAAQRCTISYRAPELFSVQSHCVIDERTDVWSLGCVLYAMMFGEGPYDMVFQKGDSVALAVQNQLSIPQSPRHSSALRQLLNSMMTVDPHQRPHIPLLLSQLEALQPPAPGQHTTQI

SMILES: COc1cc2ncnc(Nc3ccc(F)c(Cl)c3)c2cc1OCCCN1CCOCC1
- residual activity [1]: 38.6%
- residual activity [2]: 90.9%
- residual activity [3]: 109%
- residual activity [4]: 96.8%
- residual activity [5]: 93.8%
- residual activity [6]: 96.4%
- residual activity [7]: 97.4%
- residual activity [8]: 95.4%
- residual activity [9]: 106%
- residual activity [10]: 97%
- residual activity [11]: 102%
- residual activity [12]: 101%
- residual activity [13]: 102%
- residual activity [14]: 91.9%
- residual activity [15]: 107%
- residual activity [16]: 85.7%
- residual activity [17]: 103%
- residual activity [18]: 95%
- residual activity [19]: 114%
- residual activity [20]: 99.3%
- residual activity [21]: 104%
- residual activity [22]: 24.2%
- residual activity [23]: 96.5%
- residual activity [24]: 99.1%
- residual activity [25]: 96.2%
- residual activity [26]: 95.4%
- residual activity [27]: 92.3%
- residual activity [28]: 92.5%
- residual activity [29]: 88.2%
- residual activity [30]: 102%
- residual activity [31]: 110%
- residual activity [32]: 89.7%
- residual activity [33]: 92.4%
- residual activity [34]: 103%
- residual activity [35]: 76.3%
- residual activity [36]: 89.9%
- residual activity [37]: 98.7%
- residual activity [38]: 104%
- residual activity [39]: 91.3%

SMILES: C#Cc1cccc(Nc2ncnc3cc(OCCOC)c(OCCOC)cc23)c1
- residual activity [1]: 20.3%
- residual activity [2]: 93.7%
- residual activity [3]: 117%
- residual activity [4]: 98%
- residual activity [5]: 95.2%
- residual activity [6]: 93.2%
- residual activity [7]: 97.3%
- residual activity [8]: 93.1%
- residual activity [10]: 84.4%
- residual activity [11]: 104%
- residual activity [12]: 97.4%
- residual activity [14]: 93.7%
- residual activity [16]: 91.3%
- residual activity [17]: 111%
- residual activity [18]: 92.4%
- residual activity [19]: 78.9%
- residual activity [20]: 102%
- residual activity [22]: 61.4%
- residual activity [23]: 94.4%
- residual activity [24]: 97.2%
- residual activity [25]: 94%
- residual activity [26]: 100%
- residual activity [27]: 99.6%
- residual activity [28]: 92.3%
- residual activity [29]: 83.8%
- residual activity [30]: 98.9%
- residual activity [31]: 111%
- residual activity [33]: 95.1%
- residual activity [40]: 107%
- residual activity [34]: 100%
- residual activity [35]: 86.5%
- residual activity [37]: 98.7%
- residual activity [41]: 108%
- residual activity [39]: 88.8%

SMILES: Clc1ccc(Nc2nnc(Cc3ccncc3)c3ccccc23)cc1
- residual activity [1]: 96.3%
- residual activity [2]: 93.3%
- residual activity [3]: 126%
- residual activity [4]: 93.5%
- residual activity [5]: 109%
- residual activity [6]: 91.8%
- residual activity [7]: 97.1%
- residual activity [8]: 109%
- residual activity [9]: 90%
- residual activity [10]: 33.3%
- residual activity [11]: 106%
- residual activity [12]: 105%
- residual activity [13]: 116%
- residual activity [14]: 109%
- residual activity [15]: 118%
- residual activity [16]: 92.5%
- residual activity [17]: 107%
- residual activity [18]: 83.5%
- residual activity [19]: 114%
- residual activity [20]: 104%
- residual activity [21]: 114%
- residual activity [22]: 104%
- residual activity [23]: 96.6%
- residual activity [24]: 104%
- residual activity [25]: 97.5%
- residual activity [26]: 87.6%
- residual activity [27]: 94.7%
- residual activity [28]: 69.5%
- residual activity [29]: 88.3%
- residual activity [30]: 100%
- residual activity [31]: 113%
- residual activity [32]: 87%
- residual activity [33]: 81.1%
- residual activity [40]: 101%
- residual activity [34]: 97.1%
- residual activity [35]: 94.7%
- residual activity [36]: 95.7%
- residual activity [37]: 93%
- residual activity [38]: 126%
- residual activity [41]: 104%
- residual activity [39]: 99.6%
